Reference: PubChem BioAssay AID1963982 (Molecular Pharmacology Branch, DTP, NCI, 2024)
One block for each molecule: values may come before it.

Test system: 313798-341-R-J2-PDC spheroids, viability
Assay: Anticancer human tumor 313798-341-R-J2-PDC patient-derived cervical squamous cell carcinoma cell line growth inhibition [PI3K]
Conditions: spheroids with HUVEC and MSC; for IC50: curve of first compound; for viability, T/C: stronger effect = lower value
Outline: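 Combination activity was assessed by viability in multicellular tumor spheroids carrying HUVEC and MSC components. Agents were tested with PI3K inhibitors from a Cmax-based top dose (or 10 microM) downward in half-log increments.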
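Further: spheroids exposed to compounds for seven days.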
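Wherever viability, T/C is given: 100% = DMSO vehicle control viability.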

IC50 (second compound 0.0316 µM): > 10 µM | IC50 (second compound 0.1 µM): > 10 µM | IC50 (second compound 0.316 µM): > 10 µM | IC50 (second compound 1 µM): > 10 µM | IC50 (second compound 3.16 µM): > 10 µM | IC50 (second compound 10 µM): > 10 µM
Compound: CNC(=O)c1ccc(N2C(=S)N(c3ccc(C#N)c(C(F)(F)F)c3)C(=O)C2(C)C)cc1F + CC(Nc1ncnc2nc[nH]c12)c1cc2cccc(Cl)c2c(=O)n1-c1ccccc1
viability, T/C (second compound 0.0316 µM, first compound 0.0316 µM): 104% | viability, T/C (second compound 0.0316 µM, first compound 0.1 µM): 110% | viability, T/C (second compound 0.0316 µM, first compound 0.316 µM): 100% | viability, T/C (second compound 0.0316 µM, first compound 1 µM): 92.4% | viability, T/C (second compound 0.0316 µM, first compound 3.16 µM): 121% | viability, T/C (second compound 0.0316 µM, first compound 10 µM): 98.8% | viability, T/C (second compound 0.1 µM, first compound 0.0316 µM): 102% | viability, T/C (second compound 0.1 µM, first compound 0.1 µM): 101% | viability, T/C (second compound 0.1 µM, first compound 0.316 µM): 112% | viability, T/C (second compound 0.1 µM, first compound 1 µM): 99.4% | viability, T/C (second compound 0.1 µM, first compound 3.16 µM): 106% | viability, T/C (second compound 0.1 µM, first compound 10 µM): 101% | viability, T/C (second compound 0.316 µM, first compound 0.0316 µM): 94.8% | viability, T/C (second compound 0.316 µM, first compound 0.1 µM): 98.3% | viability, T/C (second compound 0.316 µM, first compound 0.316 µM): 92.6% | viability, T/C (second compound 0.316 µM, first compound 1 µM): 98.8% | viability, T/C (second compound 0.316 µM, first compound 3.16 µM): 98.3% | viability, T/C (second compound 0.316 µM, first compound 10 µM): 96.5% | viability, T/C (second compound 1 µM, first compound 0.0316 µM): 95% | viability, T/C (second compound 1 µM, first compound 0.1 µM): 96.5% | viability, T/C (second compound 1 µM, first compound 0.316 µM): 97.8% | viability, T/C (second compound 1 µM, first compound 1 µM): 109% | viability, T/C (second compound 1 µM, first compound 3.16 µM): 100% | viability, T/C (second compound 1 µM, first compound 10 µM): 93.2% | viability, T/C (second compound 3.16 µM, first compound 0.0316 µM): 111% | viability, T/C (second compound 3.16 µM, first compound 0.1 µM): 101% | viability, T/C (second compound 3.16 µM, first compound 0.316 µM): 92.9% | viability, T/C (second compound 3.16 µM, first compound 1 µM): 93.9% | viability, T/C (second compound 3.16 µM, first compound 3.16 µM): 97.1% | viability, T/C (second compound 3.16 µM, first compound 10 µM): 84.8% | viability, T/C (second compound 10 µM, first compound 0.0316 µM): 82.8% | viability, T/C (second compound 10 µM, first compound 0.1 µM): 86.1% | viability, T/C (second compound 10 µM, first compound 0.316 µM): 85.5% | viability, T/C (second compound 10 µM, first compound 1 µM): 85.6% | viability, T/C (second compound 10 µM, first compound 3.16 µM): 88.4% | viability, T/C (second compound 10 µM, first compound 10 µM): 73.2%

IC50 (second compound 0.0316 µM): > 3 µM | IC50 (second compound 0.1 µM): > 3 µM | IC50 (second compound 0.316 µM): > 3 µM | IC50 (second compound 1 µM): > 3 µM | IC50 (second compound 3.16 µM): > 3 µM | IC50 (second compound 10 µM): > 3 µM
Compound: Cn1cnc2c(F)c(Nc3ccc(Br)cc3Cl)c(C(=O)NOCCO)cc21 + CC(Nc1ncnc2nc[nH]c12)c1cc2cccc(Cl)c2c(=O)n1-c1ccccc1
viability, T/C (second compound 0.0316 µM, first compound 0.00949 µM): 97.3% | viability, T/C (second compound 0.0316 µM, first compound 0.03 µM): 99% | viability, T/C (second compound 0.0316 µM, first compound 0.0949 µM): 92.1% | viability, T/C (second compound 0.0316 µM, first compound 0.3 µM): 91.4% | viability, T/C (second compound 0.0316 µM, first compound 0.949 µM): 89.2% | viability, T/C (second compound 0.0316 µM, first compound 3 µM): 77.9% | viability, T/C (second compound 0.1 µM, first compound 0.00949 µM): 85.7% | viability, T/C (second compound 0.1 µM, first compound 0.03 µM): 95.7% | viability, T/C (second compound 0.1 µM, first compound 0.0949 µM): 89% | viability, T/C (second compound 0.1 µM, first compound 0.3 µM): 95.2% | viability, T/C (second compound 0.1 µM, first compound 0.949 µM): 80% | viability, T/C (second compound 0.1 µM, first compound 3 µM): 81.3% | viability, T/C (second compound 0.316 µM, first compound 0.00949 µM): 87.2% | viability, T/C (second compound 0.316 µM, first compound 0.03 µM): 93.7% | viability, T/C (second compound 0.316 µM, first compound 0.0949 µM): 87.6% | viability, T/C (second compound 0.316 µM, first compound 0.3 µM): 92.7% | viability, T/C (second compound 0.316 µM, first compound 0.949 µM): 87.1% | viability, T/C (second compound 0.316 µM, first compound 3 µM): 74.6% | viability, T/C (second compound 1 µM, first compound 0.00949 µM): 96.6% | viability, T/C (second compound 1 µM, first compound 0.03 µM): 98.1% | viability, T/C (second compound 1 µM, first compound 0.0949 µM): 90.3% | viability, T/C (second compound 1 µM, first compound 0.3 µM): 86.1% | viability, T/C (second compound 1 µM, first compound 0.949 µM): 90.1% | viability, T/C (second compound 1 µM, first compound 3 µM): 71.5% | viability, T/C (second compound 3.16 µM, first compound 0.00949 µM): 92.4% | viability, T/C (second compound 3.16 µM, first compound 0.03 µM): 87.7% | viability, T/C (second compound 3.16 µM, first compound 0.0949 µM): 94.3% | viability, T/C (second compound 3.16 µM, first compound 0.3 µM): 89% | viability, T/C (second compound 3.16 µM, first compound 0.949 µM): 79.7% | viability, T/C (second compound 3.16 µM, first compound 3 µM): 76.8% | viability, T/C (second compound 10 µM, first compound 0.00949 µM): 75.2% | viability, T/C (second compound 10 µM, first compound 0.03 µM): 81.3% | viability, T/C (second compound 10 µM, first compound 0.0949 µM): 80.8% | viability, T/C (second compound 10 µM, first compound 0.3 µM): 73.8% | viability, T/C (second compound 10 µM, first compound 0.949 µM): 80.5% | viability, T/C (second compound 10 µM, first compound 3 µM): 53.1%
